Results on three compounds are retold here after patent US20260167641A1, “CRYSTAL FORM OF IMIDAZOPYRAZINE DERIVATIVE, PREPARATION METHOD THEREFOR AND USE THEREOF” (TRANSTHERA SCIENCES (NANJING), INC., priority 2022, published 2026).

The nature of series [1]: Solubility test in pH 4.5 acetate buffer solution. Type of series: physicochemical. The settings on record: for Solubility: saturated solution, 37° C., 200 rpm, 24 h. As for the experimental part:
Appropriate amounts of crystal forms I, II, III, and the compound of formula (I) were weighed and placed into 15 mL centrifuge tubes separately. A pH 4.5 acetate buffer was added to each tube to prepare saturated solutions. The tubes were sealed and placed in a water bath thermostatic oscillator to shake at 37° C. and a rotation speed of 200 rpm for 24 h. After centrifugation, the supernatants were collected and diluted to the corresponding multiples. The concentrations were measured. The detection was conducted according to the 2020 edition of the Chinese Pharmacopoeia.

Series [2] is described as follows: Pharmacokinetic evaluation test in rats. Type of series: in vivo, SD rats. The settings on record: p.o. 100 mg/kg; for Pharmacokinetic properties: SD rats; for AUCinf—obs / AUClast / Cmax / tz1/2 (terminal half-life) / Tmax: male SD rats, 100 mg/kg; for AUCinf—obs / AUClast / Cmax / tz1/2 (terminal half-life): mean, n = 3; for Tmax: n = 3, Tmax in median. As to the method:
• Animals: male SD rats • Animal administration and sample collection: Crystal forms I, II, and III were each dissolved in a mixture of 20% PEG400+80% (20% Captisol in 0.5% MC) to prepare administration formulation suspensions. The administration formulations were intragastrically administered to the SD rats at a dose of 100 mg/kg. Blood samples were collected at time points of 15 min, 30 min, 1 h, 2 h, 4 h, 6 h, 8 h, 24 h, 48 h, 72 h, and […] after administration.
One day before administration, the animals underwent jugular vein catheterization. After administration, about 300 μL of blood samples were collected via the jugular vein and then placed into anticoagulation tubes containing EDTA-K2. The blood samples were centrifuged at 4° C. and 8000 rpm for 10 min to yield plasma samples, which were prepared within 30 min after blood sample collection. The plasma samples were stored in a refrigerator at −80° C. before tests.
The samples to be tested were taken out from the refrigerator at −80° C., naturally thawed at room temperature, and then vortexed for 5 min. 20 μL of each of the 20-fold diluted plasma samples was precisely pipetted into a 1.5 mL centrifuge tube, and 300 μL of an internal standard working solution at a concentration of 10 ng/mL was added. The mixture was uniformly mixed, vortexed for 5 min, and then centrifuged at 12000 rpm for 5 mun.
50 μL of the supernatant was precisely pipetted into a 96-well plate to which water was added at 150 μL/well in advance, uniformly mixed by vortexing for 5 min, and analyzed by LC-MS/MS.
The sample to be tested was taken out from the refrigerator at −80° C., naturally thawed at room temperature, and then vortexed for 5 min. 2 μL of the plasma sample was precisely pipetted and then added, together with 28 μL of blank plasma, to a 1.5 mL centrifuge tube, and 450 μL of an internal standard working solution (a solution of tolbutamide in acetonitrile) at a concentration of 100 ng/mL was added. The mixture was uniformly mixed, vortexed for 5 min, and then centrifuged at 12000 rpm for 5 min. 50 μL of the supernatant was precisely pipetted into a 96-well plate to which water was added at 150 μL/well in advance, uniformly mixed by vortexing for 5 min, and analyzed by LC-MS/MS.
The test compound concentrations were output by Analyst 1.7.1 of AB Sciex. Parameters such as mean, standard deviation, and coefficient of variation were calculated by Microsoft Excel. PK parameters were calculated by Pharsight Phoenix 8.2 software NCA (Tmax was in median).

The nature of series [3]: Stability evaluation under influencing factors. Type of series: physicochemical. The settings on record: for Purity decrease: 30 days vs day 0. As to the method: Appropriate amounts of crystal forms I, II. III, and the compound of formula (I) were taken and exposed to conditions of 60° C., RH (relative humidity) 92.5%, RH (relative humidity) 75%, and light, respectively. The samples were collected on day 30, and the purity of the samples and changes in XRPD were examined according to the 2020 edition of the Chinese Pharmacopoeia.

Converted amounts (≈) assume the structure as drawn.

Take `Nc1nccn2c(C34CCC(NC(=O)CN5CCOCC5)(CC3)C4)nc(-c3ccc(C(=O)Nc4cc(C(F)(F)F)ccn4)cc3)c12` (single isomer, unassigned) [Crystal form I, 4-(8-amino-3-(4-(2-morpholinoacetamido)bicyclo[2.2.1]heptan-1-yl)imidazo[1,5-a]pyrazin-1-yl)-N-(4-(trifluoromethyl)pyridin-2-yl)benzamide]: in series [1], the “Solubility compared to the amorphous form” value is recorded as “higher solubility” and the Solubility amounted to 273 µg/mL (≈ 430 µM). Further, in series [2], the Pharmacokinetic properties entry was “very good pharmacokinetic properties”, the “AUCinf—obs” value turned out to be 1218.508 µg·h/mL, the AUClast was 1208.628 µg·h/mL and the Cmax was 96.267 µg/mL. In series [2], the “tz1/2 (terminal half-life)” value turned out to be 10.4 h and the Tmax is listed as 1.00 h. Besides, the Purity % in series [3] (0 day) turned out to be 98.6%. Moreover, in series [3] (60° C., 30 days), the “Crystal form identification (XRPD)” value is listed as “Consistent with day 0” and the Purity % worked out at 98.7%. Also, in series [3] (Light exposure, 30 days), the “Crystal form identification (XRPD)” value was “Consistent with day 0” and the Purity % is 98.1%. In series [3] (RH 75%, 30 days), the “Crystal form identification (XRPD)” value was “Consistent with day 0” and the Purity % came out at 98.7%. Besides, in series [3] (RH 92.5%, 30 days), the “Crystal form identification (XRPD)” value is on record as “Consistent with day 0” and the Purity % worked out at 98.7%. Moreover, the “Change of crystal form (XRPD pattern)” value in series [3] (all influencing factor conditions, 30 days) was “no changes in the crystal forms occurred”. In addition, the “Stability compared to the amorphous form” value in series [3] (influencing factors, 30 days) is “higher stability”. Further, the Purity decrease in series [3] (light exposure) was determined as 0.5%.
As to `Nc1nccn2c(C34CCC(NC(=O)CN5CCOCC5)(CC3)C4)nc(-c3ccc(C(=O)Nc4cc(C(F)(F)F)ccn4)cc3)c12` (single isomer, unassigned) [Crystal form III, 4-(8-amino-3-(4-(2-morpholinoacetamido)bicyclo[2.2.1]heptan-1-yl)imidazo[1,5-a]pyrazin-1-yl)-N-(4-(trifluoromethyl)pyridin-2-yl)benzamide], in series [1], the “Solubility compared to the amorphous form” value is listed as “higher solubility” and the Solubility amounted to 98 µg/mL (≈ 154 µM). Besides, in series [2], the Pharmacokinetic properties entry is reported as “very good pharmacokinetic properties”, the “AUCinf—obs” value was determined as 2488.128 µg·h/mL, the AUClast turned out to be 2482.493 µg·h/mL and the Cmax worked out at 142.333 µg/mL. For the same compound, in series [2], the “tz1/2 (terminal half-life)” value is reported as 9.39 h and the Tmax amounted to 2.00 h. The compound also returned a Purity % in series [3] (0 day) of 99.0%. Further, in series [3] (60° C., 30 days), the “Crystal form identification (XRPD)” value is listed as “Consistent with day 0” and the Purity % is 94.8%. In series [3] (Light exposure, 30 days), the “Crystal form identification (XRPD)” value was “Consistent with day 0” and the Purity % is reported as 88.0%. In series [3] (RH 75%, 30 days), the “Crystal form identification (XRPD)” value was “Partially converted to amorphous” and the Purity % is recorded as 98.7%. Further, in series [3] (RH 92.5%, 30 days), the “Crystal form identification (XRPD)” value is reported as “Partially converted to amorphous” and the Purity % turned out to be 98.7%. This compound displayed a Purity decrease in series [3] (high temperature of 60° C.) of 4.2%. Besides, in series [3] (light exposure), the Purity decrease was determined as 11%.
In turn, `Nc1nccn2c(C34CCC(NC(=O)CN5CCOCC5)(CC3)C4)nc(-c3ccc(C(=O)Nc4cc(C(F)(F)F)ccn4)cc3)c12` [Compound of formula (I), 4-(8-amino-3-(4-(2-morpholinoacetamido)bicyclo[2.2.1]heptan-1-yl)imidazo[1,5-a]pyrazin-1-yl)-N-(4-(trifluoromethyl)pyridin-2-yl)benzamide] showed a Solubility in series [1] of 65 µg/mL. In addition, the Purity % in series [3] (0 day) came out at 99.7%; in series [3] (60° C., 30 days), 99.5%; in series [3] (Light exposure, 30 days), 88.2%; in series [3] (RH 75%, 30 days), 99.7%; in series [3] (RH 92.5%, 30 days) it was 99.7%. In addition, the “Crystal form identification (XRPD)” value in series [3] (60° C., 30 days) is on record as “Consistent with day 0”; in series [3] (Light exposure, 30 days), “Consistent with day 0”; in series [3] (RH 75%, 30 days), “Consistent with day 0”; in series [3] (RH 92.5%, 30 days), “Consistent with day 0”. The same compound gave a Purity decrease in series [3] (light exposure) of 11.5%.

One may read the Solubility as the dissolved amount per volume that the medium holds. The term Cmax denotes the peak of the concentration-time curve. As usually defined, the Tmax is the time from dosing to the highest level.
